Results from ChEMBL document CHEMBL3045260, “Synthesis, anti-microbial evaluation, and QSAR studies of 4-amino-3-hydroxy-naphthalene-1-sulfonic acid derivatives” (2012).
Values after ≈ are worked out from the molar mass of the structure shown.

How the values were obtained:
Format in all cases: functional
Aspergillus niger [1] = assay: Ratio of MFC to MIC for Aspergillus niger MTCC 8189
Candida albicans [2] = assay: Fungicidal activity against Candida albicans MTCC 227
Bacillus subtilis [3] = assay: Ratio of MBC to MIC for Bacillus subtilis MTCC 2063
Candida albicans [4] = assay: Ratio of MFC to MIC for Candida albicans MTCC 227
Candida albicans [5] = assay: Antifungal activity against Candida albicans MTCC 227 after 48 hr by tube dilution method
Aspergillus niger [6] = assay: Antifungal activity against Aspergillus niger MTCC 8189 after 7 days by tube dilution method
Escherichia coli [7] = assay: Ratio of MBC to MIC for Escherichia coli MTCC 1652
Staphylococcus aureus [8] = assay: Antibacterial activity against Staphylococcus aureus MTCC 2901 after 24 hr by tube dilution method
Escherichia coli [9] = assay: Bactericidal activity against Escherichia coli MTCC 1652
Staphylococcus aureus [10] = assay: Bactericidal activity against Staphylococcus aureus MTCC 2901
Bacillus subtilis [11] = assay: Antibacterial activity against Bacillus subtilis MTCC 2063 after 24 hr by tube dilution method
Bacillus subtilis [12] = assay: Bactericidal activity against Bacillus subtilis MTCC 2063
Aspergillus niger [13] = assay: Fungicidal activity against Aspergillus niger MTCC 8189
Staphylococcus aureus [14] = assay: Ratio of MBC to MIC for Staphylococcus aureus MTCC 2901
Escherichia coli [15] = assay: Antibacterial activity against Escherichia coli MTCC 1652 after 24 hr by tube dilution method

Structure (SMILES) | Ratio (Aspergillus niger [1]) | MFC (Candida albicans [2]) [µM] | Ratio (Bacillus subtilis [3]) | Ratio (Candida albicans [4]) | -logMIC (Candida albicans [5]) | -logMIC (Aspergillus niger [6]) | Ratio (Escherichia coli [7]) | -logMIC (Staphylococcus aureus [8]) | MBC (Escherichia coli [9]) [µM] | MBC (Staphylococcus aureus [10]) [µM] | -logMIC (Bacillus subtilis [11]) | MBC (Bacillus subtilis [12]) [µM] | MFC (Aspergillus niger [13]) [µM] | Ratio (Staphylococcus aureus [14]) | -logMIC (Escherichia coli [15])
O=CCCC/C=N/c1c(O)cc(S(=O)(=O)O)c2ccccc12 | 3 | > 130 | 3 | 3 | 1.41 | 1.41 | 3 | 1.11 | > 130 | > 130 | 1.41 | > 130 | 30 (≈ 9.64 µg/mL) | 3 | 1.41
O=S(=O)(O)c1cc(O)c(/N=C/C=C/c2ccccc2)c2ccccc12 | 3 | > 140 | 3 | 3 | 1.45 | 1.45 | 3 | 1.15 | > 140 | > 140 | 1.45 | > 140 | 140 (≈ 49.5 µg/mL) | 3 | 1.45
O=S(=O)(O)c1cc(O)c(/N=C/c2ccccc2Cl)c2ccccc12 | 3 | > 140 | 3 | 3 | 1.46 | 1.46 | 3 | 1.16 | > 140 | > 140 | 1.46 | > 140 | > 140 | 3 | 1.46
O=S(=O)(O)c1cc(O)c(/N=C/c2cccc(Cl)c2)c2ccccc12 | 3 | > 140 | 3 | 3 | 1.46 | 1.46 | 3 | 1.16 | > 140 | 140 (≈ 50.7 µg/mL) | 1.46 | > 140 | > 140 | 3 | 1.46
COc1ccccc1/C=N/c1c(O)cc(S(=O)(=O)O)c2ccccc12 | 3 | > 130 | 3 | 3 | 1.46 | 1.46 | 3 | 1.16 | > 130 | > 130 | 1.46 | > 130 | > 130 | 3 | 1.46
COc1cccc(/C=N/c2c(O)cc(S(=O)(=O)O)c3ccccc23)c1 | 3 | > 120 | 3 | 3 | 1.46 | 1.46 | 3 | 1.16 | > 120 | 120 (≈ 42.9 µg/mL) | 1.46 | > 120 | > 120 | 3 | 1.46
COc1ccc(/C=N/c2c(O)cc(S(=O)(=O)O)c3ccccc23)cc1OC | 3 | > 150 | 3 | 3 | 1.49 | 1.49 | 3 | 1.19 | > 150 | > 150 | 1.49 | > 150 | > 150 | 3 | 1.49
COc1cc(/C=N/c2c(O)cc(S(=O)(=O)O)c3ccccc23)cc(OC)c1OC | 3 | > 150 | 3 | 3 | 1.52 | 1.52 | 3 | 1.22 | > 150 | > 150 | 1.52 | > 150 | > 150 | 3 | 1.52
O=S(=O)(O)c1cc(O)c(/N=C/c2ccccc2)c2ccccc12 | 3 | > 130 | 3 | 3 | 1.42 | 1.42 | 3 | 1.12 | > 130 | > 130 | 1.42 | > 130 | > 130 | 3 | 1.42
O=S(=O)(O)c1cc(O)c(/N=C/c2cccc(O)c2)c2ccccc12 | 3 | > 130 | 3 | 3 | 1.44 | 1.44 | 3 | 1.14 | > 130 | > 130 | 1.44 | > 130 | 130 (≈ 44.6 µg/mL) | 3 | 1.44
COc1cccc(/C=N/c2c(O)cc(S(=O)(=O)O)c3ccccc23)c1O | 3 | > 140 | 3 | 3 | 1.48 | 1.48 | 3 | 1.17 | > 140 | 140 (≈ 52.3 µg/mL) | 1.48 | > 140 | > 140 | 3 | 1.48
CCOc1cc(/C=N/c2c(O)cc(S(=O)(=O)O)c3ccccc23)ccc1O | 3 | > 130 | 3 | 3 | 1.49 | 1.49 | 3 | 1.19 | > 130 | 130 (≈ 50.4 µg/mL) | 1.49 | > 130 | 30 (≈ 11.6 µg/mL) | 3 | 1.49
COc1cc(/C=N/c2c(O)cc(S(=O)(=O)O)c3ccccc23)ccc1O | 3 | > 160 | 3 | 3 | 1.48 | 1.48 | 3 | 1.17 | > 160 | 160 (≈ 59.7 µg/mL) | 1.48 | > 160 | 160 (≈ 59.7 µg/mL) | 3 | 1.48
O=Cc1ccc(/C=N/c2c(O)cc(S(=O)(=O)O)c3ccccc23)cc1 | 3 | > 140 | 3 | 3 | 1.45 | 1.45 | 3 | 1.15 | > 140 | 140 (≈ 49.8 µg/mL) | 1.45 | > 140 | 140 (≈ 49.8 µg/mL) | 3 | 1.45
O=[N+]([O-])c1cccc(/C=N/c2c(O)cc(S(=O)(=O)O)c3ccccc23)c1 | 3 | > 140 | 3 | 3 | 1.47 | 1.47 | 3 | 1.17 | > 140 | > 140 | 1.47 | > 140 | > 140 | 3 | 1.47
O=S(=O)(O)c1cc(O)c(/N=C/c2ccc(Cl)cc2)c2ccccc12 | 3 | > 140 | 3 | 3 | 1.16 | 1.16 | 3 | 1.16 | > 140 | > 140 | 1.16 | > 140 | > 140 | 3 | 1.16
O=S(=O)(O)c1cc(O)c(/N=C/c2ccc(Cl)cc2Cl)c2ccccc12 | 3 | > 140 | 3 | 3 | 1.5 | 1.5 | 3 | 1.2 | > 140 | > 140 | 1.5 | > 140 | > 140 | 3 | 1.5
COc1ccc(/C=N/c2c(O)cc(S(=O)(=O)O)c3ccccc23)cc1 | 3 | > 130 | 3 | 3 | 1.46 | 1.46 | 3 | 1.16 | > 130 | > 130 | 1.46 | > 130 | 130 (≈ 46.5 µg/mL) | 3 | 1.46
OC(Cn1cncn1)(Cn1cncn1)c1ccc(F)cc1F [FLUCONAZOLE] | – | – | – | – | 2.64 | 2.64 | – | – | – | – | – | – | 40 (≈ 12.3 µg/mL) | – | –
CCn1cc(C(=O)O)c(=O)c2cc(F)c(N3CCNCC3)cc21 [NORFLOXACIN] | – | – | – | – | – | – | – | 2.61 | 19 (≈ 6.07 µg/mL) | 19 (≈ 6.07 µg/mL) | 2.61 | 19 (≈ 6.07 µg/mL) | – | – | 2.61
